In US6825193B2, “Citric acid salt of a therapeutic compound and pharmaceutical compositions thereof” (Pfizer Inc., priority 2001, dated 2004):
Entries after “also recorded” stand apart in the source; their conditions may differ. Structures can show the parent of a compound that is named as a salt.

Experiments:
Type in all cases: physicochemical
[1] = Aqueous solubility and native pH in aqueous solution
[2] = Hygroscopicity on exposure to 90% relative humidity in a moisture chamber
[3] = Solid state stability (light, elevated temperature, high humidity challenges); conditions: elevated temperatures
[4] = Compatibility with drug product formulation excipients

aqueous solubility (in words) [1]: high aqueous solubility | native pH in aqueous solution ([1]; aqueous solution at solubility 1.3 mg/ml): 3.37 | solubility ([1]; water, native pH 3.37): 1300 µg/mL | hygroscopicity (in words) [2]: only slightly hygroscopic | hygroscopicity ([2]; at 90% relative humidity): approximately 1.27% | hygroscopicity ([2]; on exposure to 90% relative humidity in a moisture chamber): approximately 1.27 % wt/wt
SMILES: CN1CCN(c2ccccc2/C=C2\SCCN(c3ccc(Cl)c(Cl)c3)C2=O)CC1 [citrate salt, 4-(3,4-dichlorophenyl)-2-[2-(4-methylpiperazin-1-yl)-benzylidene]-thiomorpholin-3-one]
solid state stability (in words) [3]: excellent solid state stability; also recorded: superior to previously known salts | inertness / compatibility towards common formulation excipients (in words) [4]: relative inertness towards common excipients; also recorded: superior to previously known salts
